According to US20100063009A1, “Pharmaceutical Combination Comprising 6-Dimethylaminomethyl-1-(3-methoxy-phenyl)-cyclohexane-1.3-diol and an NSAID” (GRUENENTHAL GmbH, priority 2008, published 2010):
Where “and” joins values, the source holds several entries; their conditions need not be identical. Identical values can stand only once. Counter-ions that a name gives are not always drawn. Like-named read-outs stand apart in the source and are kept apart here.

Test system: inflamed rat hind paw
Test: Randall-Selitto test in rats (carrageenan-induced inflammatory pain, mechanical nociceptive threshold)
Assay type: in vivo
Details: for ED50: Rattus norvegicus; for timepoint of peak effect: substance applied alone, A i.v., NSAIDs i.p.
Description: The weight ratios of the components (a) and (b) that will lead to a supra-additive effect (synergistic effect) of the inventive pharmaceutical composition may be determined via the test of Randall and Selitto as described in Arch. Int. Pharmacodyn., 1957, 111: 409 to 419, which is a model for inflammatory pain. The respective part of the literature is hereby incorporated by reference and forms part of the present disclosure.
Acute inflammation is induced by an intraplantar injection of 0.1 ml of a carrageenan solution (0.5% in distilled water) into one hind paw. The mechanical nociceptive threshold is measured 4 hours after carrageenan injection using an Algesiometer (Ugo Basile, Italy). The device generates a mechanical force with a linear increase over time. The force is applied to the dorsal surface of the inflamed rat hind paw via a cone-shaped stylus with a rounded tip (2 mm tip diameter). The nociceptive threshold is defined as the force (in grams) at which the rat vocalises (cut-off force 250 g). The mechanical nociceptive threshold is measured at different timepoints after the drug or vehicle administration. The antinociceptive and antihyperalgesic activity of the tested substance is expressed as percentages of the maximal possible effect (% MPE). The group size is n=10.
The interactions studies presented herein were performed using equieffective doses of the two components, calculated from the ratio of the respective ED50 values of the components if administered alone.
The route of administration was intravenous (i.v.) for (1RS,3RS,6RS)-6-dimethylaminomethyl-1-(3-methoxy-phenyl)-cyclohexane-1,3-diol hydrochloride (A) and intraperitoneal (i.p.) for the NSAIDs diclofenac, ibuprofen, metamizol-sodium and naproxen. […] (diclofenac, ibuprofen) and 45 min p. appl. (naproxen, metamizol-sodium).

[1] = ip, measured at peak effect 30 min (diclofenac, ibuprofen) or 45 min (naproxen, metamizol-sodium) p. appl., n=10, read-out: ED50 of the NSAID applied alone

Compound | ED50 (iv, measured at peak effect 15 min p. appl., 4 h after carrageenan, % MPE, n=10, 95% range in brackets, read-out: ED50 of A applied alone) | ED50 of A applied alone (i.v., measured at peak effect 15 min p. appl., 4 h after carrageenan, % MPE, n=10, 95% range in brackets, hydrochloride) | timepoint of peak effect | ED50 [1] | ED50 of the NSAID applied alone (i.p., measured at peak effect 30 min (diclofenac, ibuprofen) or 45 min (naproxen, metamizol-sodium) p. appl., n=10)
COc1cccc([C@@]2(O)C[C@H](O)CC[C@@H]2CN(C)C)c1 (racemic) [A, (1RS,3RS,6RS)-6-dimethylaminomethyl-1-(3-methoxy-phenyl)-cyclohexane-1,3-diol hydrochloride] | 15.8 mg/kg | 14.5 (13.3-15.6) mg/kg and 14.1 (13.2-15.1) mg/kg | 15 min p. appl. |  | 
COc1ccc2cc([C@H](C)C(=O)O)ccc2c1 [Naproxen, naproxen] |  |  | 45 min p. appl. | 164 mg/kg | 
O=C(O)Cc1ccccc1Nc1c(Cl)cccc1Cl [Diclofenac, diclofenac] |  |  | 30 min p. appl. | 146 mg/kg | 
CC(C)Cc1ccc(C(C)C(=O)O)cc1 (centres unmarked) [Ibuprofen] |  |  | 30 min p. appl. | 139 mg/kg | 
Cc1c(N(C)CS(=O)(=O)[O-])c(=O)n(-c2ccccc2)n1C.[Na+] [Metamizol-Sodium, metamizol-sodium] |  |  | 45 min p. appl. |  | 88.1 (77.5-98.3) mg/kg
